Experimental data taken from the NIST ThermoML archive (doi:10.1021/acs.jced.7b00106).
Values joined by “and” are separate entries in the source; they are usually repeats but may differ in a detail not shown here. Identical values can stand only once.

Conditions: Fluid (supercritical or subcritical phases), Hot wire method

FC(F)(F)/C=C/Cl [(E)-1-chloro-3,3,3-trifluoroprop-1-ene]
Conditions | thermal conductivity
451.44 K, 4091 kPa | 0.03884 W/m/K
451.45 K, 3691 kPa | 0.03 W/m/K
451.45 K, 4479 kPa | 0.04701 W/m/K and 0.04717 W/m/K
451.46 K, 3650 kPa | 0.02974 W/m/K
451.47 K, 3830 kPa | 0.03201 W/m/K
451.47 K, 4579 kPa | 0.04622 W/m/K
451.47 K, 4580 kPa | 0.04624 W/m/K
451.48 K, 3651 kPa | 0.02988 W/m/K
451.48 K, 3831 kPa | 0.03192 W/m/K
451.5 K, 3272 kPa | 0.02692 W/m/K
451.5 K, 3273 kPa | 0.02709 W/m/K
451.5 K, 4908 kPa | 0.04557 W/m/K and 0.04553 W/m/K
451.51 K, 3508 kPa | 0.02853 W/m/K
451.51 K, 4024 kPa | 0.03641 W/m/K
451.51 K, 4025 kPa | 0.03631 W/m/K
451.52 K, 4479 kPa | 0.04791 W/m/K
451.52 K, 5208 kPa | 0.04584 W/m/K and 0.04601 W/m/K
451.53 K, 4479 kPa | 0.04799 W/m/K
451.54 K, 3691 kPa | 0.03 W/m/K and 0.03016 W/m/K
451.54 K, 4580 kPa | 0.04656 W/m/K
451.55 K, 4580 kPa | 0.04665 W/m/K
451.56 K, 3650 kPa | 0.02992 W/m/K
451.57 K, 3650 kPa | 0.02995 W/m/K
451.57 K, 3831 kPa | 0.0321 W/m/K
451.58 K, 3831 kPa | 0.0323 W/m/K
451.59 K, 4908 kPa | 0.04582 W/m/K and 0.04575 W/m/K
451.6 K, 5208 kPa | 0.04598 W/m/K and 0.04588 W/m/K
451.61 K, 3273 kPa | 0.02708 W/m/K
451.61 K, 4734 kPa | 0.046 W/m/K
451.62 K, 3273 kPa | 0.027 W/m/K
451.62 K, 3508 kPa | 0.02859 W/m/K
451.62 K, 3509 kPa | 0.02863 W/m/K
451.62 K, 4579 kPa | 0.04727 W/m/K
451.62 K, 4580 kPa | 0.0472 W/m/K
451.62 K, 4734 kPa | 0.0461 W/m/K
451.64 K, 3691 kPa | 0.03032 W/m/K and 0.03035 W/m/K
451.66 K, 2992 kPa | 0.02577 W/m/K
451.67 K, 2990 kPa | 0.02601 W/m/K
451.67 K, 3650 kPa | 0.02999 W/m/K
451.67 K, 4909 kPa | 0.04592 W/m/K
451.68 K, 4909 kPa | 0.04602 W/m/K
451.68 K, 5207 kPa | 0.04609 W/m/K
451.69 K, 5207 kPa | 0.04582 W/m/K
451.7 K, 4580 kPa | 0.04772 W/m/K
451.7 K, 4734 kPa | 0.04631 W/m/K
451.71 K, 4580 kPa | 0.04774 W/m/K
451.71 K, 4734 kPa | 0.04636 W/m/K
451.72 K, 3272 kPa | 0.02716 W/m/K
451.73 K, 2617 kPa | 0.02492 W/m/K and 0.02475 W/m/K
451.73 K, 3273 kPa | 0.02707 W/m/K
451.74 K, 3509 kPa | 0.02878 W/m/K and 0.02877 W/m/K
451.76 K, 4908 kPa | 0.04609 W/m/K
451.76 K, 4909 kPa | 0.04628 W/m/K
451.77 K, 3650 kPa | 0.0303 W/m/K
451.77 K, 5207 kPa | 0.0462 W/m/K
451.77 K, 5208 kPa | 0.04621 W/m/K
451.78 K, 2992 kPa | 0.02586 W/m/K
451.78 K, 3650 kPa | 0.03036 W/m/K
451.79 K, 2166 kPa | 0.02402 W/m/K
451.79 K, 2992 kPa | 0.02587 W/m/K
451.8 K, 2167 kPa | 0.02395 W/m/K
451.8 K, 4735 kPa | 0.0468 W/m/K
451.85 K, 3273 kPa | 0.02717 W/m/K and 0.02719 W/m/K
451.85 K, 3509 kPa | 0.02883 W/m/K
451.86 K, 1669 kPa | 0.0235 W/m/K
451.86 K, 1672 kPa | 0.02345 W/m/K
451.87 K, 2617 kPa | 0.02483 W/m/K
451.87 K, 2618 kPa | 0.02473 W/m/K
451.89 K, 4734 kPa | 0.0473 W/m/K
451.89 K, 4735 kPa | 0.04729 W/m/K
451.91 K, 2992 kPa | 0.02598 W/m/K
451.92 K, 2991 kPa | 0.02605 W/m/K
451.93 K, 5207 kPa | 0.04646 W/m/K
